# Measured values reported in publication PMC11752117 (Journal of Traditional and Complementary Medicine, 2024).
# Experiments:
# Assay in all cases: microbe, parasite or virus in culture
# Type in all cases: cell-based
# [1] = system: SARS-CoV-2 Delta variant; settings: Severe acute respiratory syndrome coronavirus 2, A549, 48 h, read-out: IC50, inhibition of SARS-CoV-2 infection
# [2] = system: SARS-CoV-2 Omicron BA.2 variant; settings: Severe acute respiratory syndrome coronavirus 2, A549, 48 h, read-out: IC50, inhibition of SARS-CoV-2 infection
# [3] = system: SARS-CoV-2 Alpha variant; settings: Severe acute respiratory syndrome coronavirus 2, A549, 48 h, read-out: IC50, inhibition of SARS-CoV-2 infection, Alpha, A549-ACE2-TMPRSS2, 1.56 to 50 μM for 2 days, n = 2
smiles,measurement,setting,value
"C=C1CC[C@@H]2[C@](C)(CO)[C@H](O)CC[C@@]2(C)[C@@H]1C/C=C1/C(=O)OC[C@H]1O [Andrographolide, andrographolide]",IC50,[1],7.35 µM
same,IC50,[2],4.62 µM
same,IC50,[3],7.08 µM
